This series can be described thus: method code SF-AS, from DOI: 10.1016/s0045-6535(98)00132-5, PMID: 9753760.

Our source for the logP values is the SangsterLogP compilation.

`O=C(Nc1ccc(Cl)cc1)c1cccc([N+](=O)[O-])c1O` displayed a logP of 2.16.
The result for `COc1ccc(NC(=O)c2cc([N+](=O)[O-])ccc2O)cc1` reads 2.19.
In the case of `COc1ccc(NC(=O)c2cccc([N+](=O)[O-])c2O)cc1`, the logP came to 1.83.
As to `CCOc1ccc(NC(=O)c2cccc([N+](=O)[O-])c2O)cc1`, the logP turned out to be 1.98.
Take `Cc1ccc(Cl)cc1NC(=O)c1cc([N+](=O)[O-])ccc1O`: the logP was 2.61.
In turn, `Cc1ccc(NC(=O)c2cc([N+](=O)[O-])ccc2O)cc1` returned a logP of 2.22.
Under `Cc1c(Cl)cccc1NC(=O)c1cccc([N+](=O)[O-])c1O` stands 2.32; under `CCOc1ccccc1NC(=O)c1cccc([N+](=O)[O-])c1O`, 2.04.
For `Cc1ccc(NC(=O)c2cccc([N+](=O)[O-])c2O)cc1`, the logP is 1.94.
In turn, `Cc1ccc(Cl)cc1NC(=O)c1cccc([N+](=O)[O-])c1O` came in with a logP of 2.24.
Under `O=C(Nc1ccc(Cl)cc1)c1cc([N+](=O)[O-])ccc1O` stands 2.54; under `CCOc1ccccc1NC(=O)c1cc([N+](=O)[O-])ccc1O`, 2.34; under `Cc1c(Cl)cccc1NC(=O)c1cc([N+](=O)[O-])ccc1O`, 2.64.
For the compound `Cc1ccccc1NC(=O)c1cccc([N+](=O)[O-])c1O`, the logP was 1.9.

One may read the logP as the decadic logarithm of the partition coefficient of the neutral form, usually between octanol and water. A lower logP goes with lower lipophilicity.
